Test results from patent US20200131196A1 (Mount Tam Therapeutics, Inc., priority 2017, published 2020).
Like-named read-outs stand apart in the source and are kept apart here.

What was measured:
[1] = system: SK-MEL-28; test: OncoPanel cell proliferation assay, SK-MEL-28; assay type: cell-based, human
Description: (§1) Cells were grown in RPMI 1640, 10% FBS, 2 mM L-alanyl-L-glutamine, 1 mM Na pyruvate, or a special medium. Cells were seeded into 384-well plates and incubated in a humidified atmosphere of 5% CO2 at 37° C. Compounds were added the day following cell seeding. At the same time, a time zero untreated cell plate was generated. After a 3-day incubation period, cells were fixed and stained to allow fluorescence imaging of nuclei. Compounds (1 mM stock solutions) were serially diluted in half-log steps from the highest test concentration ([…]), and assayed over 10 concentrations with a maximum assay concentration of 0.1% DMSO. Automated fluorescence microscopy was carried out using a Molecular Devices ImageXpress Micro XL high-content imager, and images were collected with a 4× objective. 16-bit TIFF images were acquired and analyzed with MetaXpress 5.1.0.41 software.
(§2) Cell proliferation was measured by the fluorescence intensity of an incorporated nuclear dye. The output is referred to as the relative cell count, where the measured nuclear intensity is transformed to percent of control (POC) using the following formula: […]
(§3) Cellular response parameters were calculated using nonlinear regression to a sigmoidal single-site dose response model:
(§4) EC50 is the test compound concentration at the curve inflection point or half the effective response (parameter C of the fitted curve solution). GI50 is the concentration needed to reduce the observed growth by half (midway between the curve maximum and the time zero value). “Cell Count Activity Area” is an estimate of the integrated area above the curve (Barretina, et al. The Cancer Cell Line Encyclopedia enables predictive modelling of anticancer drug sensitivity. Nature 483: 603-607). […] In rare instances, values <0 or >10 may be observed. […] Curve-fitting, calculations, and report generation was performed using a custom data reduction engine and MathIQ based software (AIM).

[2] = system: A101D; test: OncoPanel cell proliferation assay, A101D; assay type: cell-based, human
Description: as §1, §2, §3, §4

[3] = system: G-402; test: OncoPanel cell proliferation assay, G-402; assay type: cell-based, human
Description: as §1, §2, §3, §4

[4] = system: U-138MG; test: OncoPanel cell proliferation assay, U-138MG; assay type: cell-based, human
Description: as §1, §2, §3, §4

[5] = system: AsPC-1; test: OncoPanel cell proliferation assay, AsPC-1
Description: Cells were seeded into 384-well plates and incubated in a humidified atmosphere of 5% CO2 at 37° C. Compounds were added the day following cell seeding. At the same time, a time zero untreated cell plate was generated. After a 3-day incubation period, cells were fixed and stained to allow fluorescence imaging of nuclei. Compounds (1 mM stock solutions) were serially diluted in half-log steps from the highest test concentration (1 micromol), and assayed over 10 concentrations with a maximum assay concentration of 0.1% DMSO. Automated fluorescence microscopy was carried out using a Molecular Devices ImageXpress Micro XL high-content imager, and images were collected with a 4× objective. 16-bit TIFF images were acquired and analyzed with MetaXpress 5.1.0.41 software.
GI50 is the concentration needed to reduce the observed growth by half (midway between the curve maximum and the time zero value). […] In rare instances, values <0 or >10 may be observed. […] Curve-fitting, calculations, and report generation was performed using a custom data reduction engine and MathIQ based software (AIM).

[6] = system: A431; test: OncoPanel cell proliferation assay, A431; assay type: cell-based, human
Description: as §1, §2, §3, §4

[7] = Homo sapiens, read-out: Cell Count EC50
[8] = Homo sapiens, read-out: Cell Count GI50
[9] = Homo sapiens, read-out: Cell Count IC50

CO[C@H]1C[C@@H]2CC[C@@H](C)[C@@](O)(O2)C(=O)C(=O)N2CCCC[C@H]2C(=O)O[C@H]([C@H](C)C[C@H]2C[C@H]3C[C@@H]2C[C@@H]3O)CC(=O)[C@H](C)/C=C(\C)[C@@H](O)[C@@H](OC)C(=O)[C@H](C)C[C@H](C)/C=C/C=C/C=C/1C [Formula II, C37-[(1R,2S,4R,5S)-5-hyhroxybicyclo[2.2.1]heptane] rapamycin] was tested, and the “Relative cell count (%) Mean” value ([1]; 1.00E-01 microM) was 69.8%, the “Relative cell count (%) Mean” value ([1]; 1.00E-02 microM) was 84.3% and the “Relative cell count (%) Mean” value ([1]; 1.00E-03 microM) was 91.6%. For the same compound, the “Relative cell count (%) Mean” value ([1]; 1.01E-04 microM) was 110.7%, the “Relative cell count (%) Mean” value ([1]; 3.16E-01 microM) was 66.4% and the “Relative cell count (%) Mean” value ([1]; 3.17E-02 microM) was 71.0%. The “Relative cell count (%) Mean” value ([1]; 3.17E-03 microM) was 85.4%, the “Relative cell count (%) Mean” value ([1]; 3.18E-04 microM) was 94.6% and the “Relative cell count (%) Mean” value ([1]; 3.18E-05 microM) was 102.8%. The EC50 ([1]; Homo sapiens, Skin, Melanoma, summary Table 5, read-out: EC50) was 4.8 nM, the EC50 [1, 7] was 4.71 nM and the GI50 [1, 8] was 38.2 nM. The IC50 [1, 9] was > 1000 nM, the “Cell Count Activity Area” value [2] was 3.79 and the “Relative cell count (%) Mean” value ([2]; 1.00E+00 microM) was 52.5%. For the same compound, the “Relative cell count (%) Mean” value ([2]; 1.00E-01 microM) was 54.3%, the “Relative cell count (%) Mean” value ([2]; 1.00E-02 microM) was 62.0% and the “Relative cell count (%) Mean” value ([2]; 1.00E-03 microM) was 75.1%. The “Relative cell count (%) Mean” value ([2]; 1.01E-04 microM) was 96.5%, the “Relative cell count (%) Mean” value ([2]; 3.16E-01 microM) was 59.6% and the “Relative cell count (%) Mean” value ([2]; 3.17E-02 microM) was 56.2%. The “Relative cell count (%) Mean” value ([2]; 3.17E-03 microM) was 71.5%, the “Relative cell count (%) Mean” value ([2]; 3.18E-04 microM) was 82.7% and the “Relative cell count (%) Mean” value ([2]; 3.18E-05 microM) was 100.8%. It also gave an EC50 [2, 7] of 0.366 nM, a GI50 [2, 8] of 1.36 nM and an IC50 [2, 9] of 56.2 nM. The “Cell Count Activity Area” value [3] was 4.75, the “Relative cell count (%) Mean” value ([3]; 1.00E+00 microM) was 25.8% and the “Relative cell count (%) Mean” value ([3]; 1.00E-01 microM) was 28.4%. The “Relative cell count (%) Mean” value ([3]; 1.00E-02 microM) was 40.5%, the “Relative cell count (%) Mean” value ([3]; 1.00E-03 microM) was 63.7% and the “Relative cell count (%) Mean” value ([3]; 1.01E-04 microM) was 100.0%. For the same compound, the “Relative cell count (%) Mean” value ([3]; 3.16E-01 microM) was 27.5%, the “Relative cell count (%) Mean” value ([3]; 3.17E-02 microM) was 36.6% and the “Relative cell count (%) Mean” value ([3]; 3.17E-03 microM) was 52.6%. The “Relative cell count (%) Mean” value ([3]; 3.18E-04 microM) was 86.8%, the “Relative cell count (%) Mean” value ([3]; 3.18E-05 microM) was 97.8% and the EC50 [3, 7] was 1.13 nM. For the same compound, the GI50 [3, 8] was 1.51 nM, the IC50 [3, 9] was 2.87 nM and the EC50 ([4]; Homo sapiens, U138-MG, U-138 MG, CNS, Glioblastoma, summary Table 5, read-out: EC50) was 1.4 nM. For the same compound, the EC50 ([4]; Homo sapiens, U138-MG, U-138MG, read-out: Cell Count EC50) was 1.44 nM, the GI50 ([4]; Homo sapiens, U138-MG, U-138MG, read-out: Cell Count GI50) was 23 nM and the IC50 ([4]; Homo sapiens, U138-MG, U-138MG, read-out: Cell Count IC50) was > 1000 nM. For the same compound, the “Cell Count Activity Area” value ([4]; U-138MG) was 2.59, the “Relative cell count (%) Mean” value ([4]; U-138MG, 1.00E+00 microM) was 60.4% and the “Relative cell count (%) Mean” value ([4]; U-138MG, 1.00E-01 microM) was 67.9%. For the same compound, the “Relative cell count (%) Mean” value ([4]; U-138MG, 1.00E-02 microM) was 76.4%, the “Relative cell count (%) Mean” value ([4]; U-138MG, 1.00E-03 microM) was 74.8% and the “Relative cell count (%) Mean” value ([4]; U-138MG, 1.01E-04 microM) was 87.7%. For the same compound, the “Relative cell count (%) Mean” value ([4]; U-138MG, 3.16E-01 microM) was 65.0%, the “Relative cell count (%) Mean” value ([4]; U-138MG, 3.17E-02 microM) was 69.1% and the “Relative cell count (%) Mean” value ([4]; U-138MG, 3.17E-03 microM) was 73.8%. For the same compound, the “Relative cell count (%) Mean” value ([4]; U-138MG, 3.18E-04 microM) was 78.5%, the “Relative cell count (%) Mean” value ([4]; U-138MG, 3.18E-05 microM) was 87.8% and the “Cell Count Activity Area” value ([5]; AsPC-1) was 1.68. The “Relative cell count (%) Mean” value ([5]; AsPC-1, 1.00E+00 microM) was 70.3%, the “Relative cell count (%) Mean” value ([5]; AsPC-1, 1.00E-01 microM) was 74.4% and the “Relative cell count (%) Mean” value ([5]; AsPC-1, 1.00E-02 microM) was 89.3%. The “Relative cell count (%) Mean” value ([5]; AsPC-1, 1.00E-03 microM) was 90.9%, the “Relative cell count (%) Mean” value ([5]; AsPC-1, 1.01E-04 microM) was 105.4% and the “Relative cell count (%) Mean” value ([5]; AsPC-1, 3.16E-01 microM) was 77.3%. For the same compound, the “Relative cell count (%) Mean” value ([5]; AsPC-1, 3.17E-02 microM) was 81.7%, the “Relative cell count (%) Mean” value ([5]; AsPC-1, 3.17E-03 microM) was 90.9% and the “Relative cell count (%) Mean” value ([5]; AsPC-1, 3.18E-04 microM) was 97.5%. The “Relative cell count (%) Mean” value ([5]; AsPC-1, 3.18E-05 microM) was 104.0%, the EC50 ([5]; Homo sapiens, ASPC1) was 8.6 nM and the EC50 ([5]; Homo sapiens, ASPC1, read-out: Cell Count EC50) was 8.56 nM. For the same compound, the GI50 ([5]; Homo sapiens, ASPC1, read-out: Cell Count GI50) was 246 nM, the IC50 ([5]; Homo sapiens, ASPC1, read-out: Cell Count IC50) was > 1000 nM and the “Cell Count Activity Area” value [6] was 1.43. The “Relative cell count (%) Mean” value ([6]; 1.00E+00 microM) was 71.4%, the “Relative cell count (%) Mean” value ([6]; 1.00E-01 microM) was 80.3% and the “Relative cell count (%) Mean” value ([6]; 1.00E-02 microM) was 85.0%. For the same compound, the “Relative cell count (%) Mean” value ([6]; 1.00E-03 microM) was 94.6%, the “Relative cell count (%) Mean” value ([6]; 1.01E-04 microM) was 103.1% and the “Relative cell count (%) Mean” value ([6]; 3.16E-01 microM) was 75.3%. For the same compound, the “Relative cell count (%) Mean” value ([6]; 3.17E-02 microM) was 81.8%, the “Relative cell count (%) Mean” value ([6]; 3.17E-03 microM) was 96.4% and the “Relative cell count (%) Mean” value ([6]; 3.18E-04 microM) was 102.0%. The “Relative cell count (%) Mean” value ([6]; 3.18E-05 microM) was 100.9%, the EC50 ([6]; Homo sapiens, A-431, Skin, Head/Neck, summary Table 5, read-out: EC50) was 12 nM and the EC50 ([6]; Homo sapiens, A-431, read-out: Cell Count EC50) was 12.1 nM. The GI50 ([6]; Homo sapiens, A-431, read-out: Cell Count GI50) was > 1000 nM and the IC50 ([6]; Homo sapiens, A-431, read-out: Cell Count IC50) was > 1000 nM.
